Key:
Cytochrome P450 2D6 = Cytochrome P450 2D6 (Homo sapiens, UniProt P10635); experiment: Inhibition of CYP2D6 (unknown origin); assay type: ADME
[1] = tested on: Human immunodeficiency virus 1; experiment: Antiviral activity against HIV-1 ROD infected in human MT4 cells assessed as reduction in viral replication by MTT assay; assay type: functional, organism-based
[2] = Cytotoxicity against human MT4 cells assessed as reduction on cell growth by MTT assay; assay type: toxicity, cell-based
[3] = Selectivity index, ratio of CC50 for cytotoxicity against human MT4 cells to EC50 of Anti-HIV activity against HIV-1 IIIB infected in human MT4 cells; assay type: toxicity, cell-based; details: read-out: Ratio CC50/EC50
[4] = tested on: Human immunodeficiency virus 1; experiment: Antiviral activity against HIV-1 L100I mutant infected in human MT4 cells assessed as reduction in viral replication by MTT assay; assay type: functional, organism-based; details: Human immunodeficiency virus 1, L100I mutant
[5] = tested on: Human immunodeficiency virus 1; experiment: Antiviral activity against HIV-1 K103N mutant infected in human MT4 cells assessed as reduction in viral replication by MTT assay; assay type: functional, organism-based; details: Human immunodeficiency virus 1, K103N mutant
[6] = tested on: Human immunodeficiency virus 1; experiment: Antiviral activity against HIV-1 Y181C mutant infected in human MT4 cells assessed as reduction in viral replication by MTT assay; assay type: functional, organism-based; details: Human immunodeficiency virus 1, Y181C mutant
[7] = tested on: Human immunodeficiency virus 1; experiment: Antiviral activity against HIV-1 Y188L mutant infected in human MT4 cells assessed as reduction in viral replication by MTT assay; assay type: functional, organism-based; details: Human immunodeficiency virus 1, Y188L mutant
[8] = tested on: Human immunodeficiency virus 1; experiment: Antiviral activity against HIV-1 E138K mutant infected in human MT4 cells assessed as reduction in viral replication by MTT assay; assay type: functional, organism-based; details: Human immunodeficiency virus 1, E138K mutant
[9] = tested on: Human immunodeficiency virus 1; experiment: Antiviral activity against HIV-1 F227L-V106A mutant infected in human MT4 cells assessed as reduction in viral replication by MTT assay; assay type: functional, organism-based; details: Human immunodeficiency virus 1, F227L-V106A mutant
[10] = tested on: Human immunodeficiency virus 1; experiment: Antiviral activity against HIV-1 K103N-Y181C mutant infected in human MT4 cells assessed as reduction in viral replication by MTT assay; assay type: functional, organism-based; details: Human immunodeficiency virus 1, K103N-Y181C mutant
[11] = biological target: Human immunodeficiency virus type 1 reverse transcriptase (Human immunodeficiency virus 1, UniProt Q72547); experiment: Inhibition of wild type HIV-1 Reverse transcriptase
[12] = biological target: Voltage-gated inwardly rectifying potassium channel KCNH2 (Homo sapiens, UniProt Q12809); experiment: Inhibition of human ERG potassium channel expressed in CHO cells by automated patch clamp electrophysiological assay; assay type: toxicity, cell-based
[13] = tested on: Human immunodeficiency virus 1; experiment: Antiviral activity against HIV-1 IIIB infected in human MT4 cells assessed as reduction in viral replication by MTT assay; assay type: functional, organism-based; details: Human immunodeficiency virus 1, IIIB

Chain of Voltage-gated inwardly rectifying potassium channel KCNH2 (Q12809 whole entry): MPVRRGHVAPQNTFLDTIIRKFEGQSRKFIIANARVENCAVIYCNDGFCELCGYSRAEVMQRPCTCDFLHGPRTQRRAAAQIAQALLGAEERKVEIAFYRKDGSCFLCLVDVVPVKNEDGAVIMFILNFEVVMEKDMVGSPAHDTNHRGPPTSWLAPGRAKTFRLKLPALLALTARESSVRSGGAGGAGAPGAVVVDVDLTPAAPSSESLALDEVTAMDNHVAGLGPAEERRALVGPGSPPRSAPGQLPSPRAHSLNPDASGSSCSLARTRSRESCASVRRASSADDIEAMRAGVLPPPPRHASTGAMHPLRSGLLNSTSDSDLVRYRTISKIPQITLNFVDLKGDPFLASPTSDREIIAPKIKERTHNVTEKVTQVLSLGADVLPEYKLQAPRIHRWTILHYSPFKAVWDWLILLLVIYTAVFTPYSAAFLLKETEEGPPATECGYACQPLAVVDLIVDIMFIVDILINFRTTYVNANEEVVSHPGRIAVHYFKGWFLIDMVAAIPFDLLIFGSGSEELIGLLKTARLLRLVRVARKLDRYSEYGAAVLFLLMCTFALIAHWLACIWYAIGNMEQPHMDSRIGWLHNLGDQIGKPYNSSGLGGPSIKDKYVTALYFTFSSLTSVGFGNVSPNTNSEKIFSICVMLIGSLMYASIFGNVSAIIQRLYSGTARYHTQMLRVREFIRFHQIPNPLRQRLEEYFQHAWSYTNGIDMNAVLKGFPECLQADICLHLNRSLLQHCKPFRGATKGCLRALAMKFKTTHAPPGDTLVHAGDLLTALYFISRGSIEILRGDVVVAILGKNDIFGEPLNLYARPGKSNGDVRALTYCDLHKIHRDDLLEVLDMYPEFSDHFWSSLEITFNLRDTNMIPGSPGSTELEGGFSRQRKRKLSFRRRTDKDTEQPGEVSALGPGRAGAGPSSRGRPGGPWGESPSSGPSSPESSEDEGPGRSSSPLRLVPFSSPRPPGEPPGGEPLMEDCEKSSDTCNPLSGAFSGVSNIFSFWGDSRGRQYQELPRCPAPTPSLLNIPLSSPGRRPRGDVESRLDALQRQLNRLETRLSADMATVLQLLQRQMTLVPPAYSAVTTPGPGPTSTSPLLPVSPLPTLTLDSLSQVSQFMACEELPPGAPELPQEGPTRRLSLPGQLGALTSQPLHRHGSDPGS
Chain of Cytochrome P450 2D6 (P10635 whole entry): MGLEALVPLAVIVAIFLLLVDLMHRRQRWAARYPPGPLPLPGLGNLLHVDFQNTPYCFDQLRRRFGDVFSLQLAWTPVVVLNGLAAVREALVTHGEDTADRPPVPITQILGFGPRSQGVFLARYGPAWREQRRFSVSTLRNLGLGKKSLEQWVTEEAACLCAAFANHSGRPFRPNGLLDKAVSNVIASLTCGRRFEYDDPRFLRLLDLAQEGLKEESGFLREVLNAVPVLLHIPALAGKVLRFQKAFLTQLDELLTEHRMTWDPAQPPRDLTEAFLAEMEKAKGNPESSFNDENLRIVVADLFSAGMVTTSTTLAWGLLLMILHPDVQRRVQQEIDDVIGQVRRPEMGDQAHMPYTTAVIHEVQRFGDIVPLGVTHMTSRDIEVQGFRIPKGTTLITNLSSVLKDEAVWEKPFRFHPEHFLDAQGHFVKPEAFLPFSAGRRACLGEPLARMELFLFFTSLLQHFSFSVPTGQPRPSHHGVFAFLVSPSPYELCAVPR

Compound	IC50 (Cytochrome P450 2D6) [µM]	EC50 [1] [µM]	CC50 [2] [µM]	selectivity ratio [3]	EC50 [4] [µM]	EC50 [5] [µM]	EC50 [6] [µM]	EC50 [7] [µM]	EC50 [8] [µM]	EC50 [9] [µM]	EC50 [10] [µM]	IC50 [11] [µM]	IC50 [12] [µM]	EC50 [13] [µM]
COc1ccc2c(c1)[C@]13CCCC[C@@H]1[C@H](C2)N(C)CC3 [DEXTROMETHORPHAN]	0.043													
Cn1c(Cn2ccc(C(F)(F)F)c(Oc3cc(Cl)cc(C#N)c3)c2=O)n[nH]c1=O [DORAVIRINE]		> 35	293	22600	0.0066	0.042	0.025	0.5	0.0075	17.4	0.142	0.044	88	
Cn1c(Cn2ccc(C(F)(F)F)c(Oc3ccc(-c4cccc(C#N)c4)cc3)c2=O)n[nH]c1=O		> 35	114	23.7	10.8	14.3	39.1	> 35	12.2	> 35	> 35	14.4		4.79
Cc1cc(-c2ccc(F)c(C#N)c2)ccc1Oc1c(C(F)(F)F)ccn(Cc2n[nH]c(=O)n2C)c1=O		> 35	25	13.7	2.73	1.59	6.03	> 35	2.31	> 35	8.59	5.49		1.83
Cn1c(Cn2ccc(C(F)(F)F)c(Oc3ccc(-c4cc(F)cc(C#N)c4)c(F)c3)c2=O)n[nH]c1=O		> 35	105	143	1.86	2.47	12.1	39.8	1.34	> 35	36.6	1.02		0.74
Cn1c(Cn2ccc(C(F)(F)F)c(Oc3ccc(-c4ccc(C#N)cc4)cc3F)c2=O)n[nH]c1=O		> 35	41.8	8.72	4.6	6.13	48.3	> 35	7.06	> 35	> 35	6.35		4.8
Cn1c(Cn2ccc(C(F)(F)F)c(Oc3ccc(-c4ccc(C#N)cc4)c(F)c3)c2=O)n[nH]c1=O		> 35	48.5	37.8	1.19	3.65	19.4	> 35	1.96	> 35	> 35	1.52		1.28
Cn1c(Cn2ccc(C(F)(F)F)c(Oc3c(F)cc(-c4cc(F)cc(C#N)c4)cc3F)c2=O)n[nH]c1=O		> 35	16.6	10.2	2.97	2.07	> 35	> 35	5.2	> 35	> 35	3.25		1.64
Cc1cc(-c2ccc(C#N)cc2)ccc1Oc1c(C(F)(F)F)ccn(Cc2n[nH]c(=O)n2C)c1=O		> 35	33.4	21.7	1.63	1.65	6.26	> 35	2.42	> 35	6.55	4.8		1.54
Cn1c(Cn2ccc(C(F)(F)F)c(Oc3cc(C#N)cc(-c4ccc(C#N)cc4)c3)c2=O)n[nH]c1=O		> 35	142	3110	0.07	0.078	0.45	0.61	0.082	> 35	2	0.52		0.046
Cc1ccc(-c2cc(C#N)cc(Oc3c(C(F)(F)F)ccn(Cc4n[nH]c(=O)n4C)c3=O)c2)cc1		> 35	> 267	> 1150	0.097	0.54	0.21	1.66	0.15	> 35	5.13	1.53		0.23
Cc1cc(Oc2c(C(F)(F)F)ccn(Cc3n[nH]c(=O)n3C)c2=O)ccc1-c1cccc(F)c1		> 35	55.9	20.1	2.14	10.9	> 35	> 35	4	> 35	> 35	4.71		2.77
Cn1c(Cn2ccc(C(F)(F)F)c(Oc3c(F)cc(-c4ccc(C#N)cc4)cc3F)c2=O)n[nH]c1=O		> 35	21.2	29.5	1.69	1.14	4.97	> 35	1.46	> 35	> 35	3.13		0.72
Cc1cc(-c2cccc(F)c2)ccc1Oc1c(C(F)(F)F)ccn(Cc2n[nH]c(=O)n2C)c1=O		> 35	26.7	5.2	3.64	2.59	> 35	> 35	3.99	> 35	> 35	5.44		5.14
COc1cc(-c2ccc(F)c(C#N)c2)ccc1Oc1c(C(F)(F)F)ccn(Cc2n[nH]c(=O)n2C)c1=O		> 35	102	5.74	4.41	11.2	14.7	> 35	21.8	> 35	> 35	42.5		17.9
Cn1c(Cn2ccc(C(F)(F)F)c(Oc3ccc(-c4cc(F)cc(C#N)c4)cc3)c2=O)n[nH]c1=O		> 35	90.5	5.95	9.01	15.5	42.2	> 35	13.9	> 35	> 35	8.1		15.2

— ChEMBL document CHEMBL5113480, “Discovery of novel biphenyl-substituted pyridone derivatives as potent non-nucleoside reverse transcriptase inhibitors with promising oral bioavailability” (Eur J Med Chem, 2022)
